In general, Km refers to the concentration of substrate that gives half-maximal velocity. A word on the kcat/Km: it is the second-order rate constant that governs catalysis at low substrate concentration.

Where “and” joins values, the source holds several entries; their conditions need not be identical. Equal entries are not always repeated. Where two headings read alike, the source gives them in different places.

Series [1] deals with T1, VIM-2 (Escherichia coli, UniProt Q5U7L7). In words: biochemical.
Series [2] concerns the target T2, VIM-4 (Pseudomonas aeruginosa, UniProt Q8KRJ3). Type of series: biochemical. Conditions: read-out: Approximate Ki value (reflecting Km), from a single avibactam concentration (1 mM), ceftazidime 30 µM substrate.
Series [3] concerns SPM-1. The class given is biochemical.
For series [4], the target named is T3, NDM-1 (Klebsiella pneumoniae, UniProt C7C422). In words: biochemical.
T3 sequence (C7C422 43-270 limits assumed, looked up, species assumed): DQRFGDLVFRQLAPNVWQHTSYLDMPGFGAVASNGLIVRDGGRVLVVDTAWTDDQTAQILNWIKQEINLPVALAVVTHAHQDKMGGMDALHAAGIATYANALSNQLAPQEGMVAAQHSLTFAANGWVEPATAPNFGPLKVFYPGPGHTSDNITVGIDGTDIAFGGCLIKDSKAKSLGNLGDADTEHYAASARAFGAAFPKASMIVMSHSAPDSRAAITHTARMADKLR
Series [5] addresses T4, IMP-1 (Serratia marcescens, UniProt P52699). In words: biochemical. The following applies: Approximate Ki (= Km) value, from a single avibactam concentration (1 mM), ceftazidime 30 µM substrate.
Series [6] has as its target T5, FEZ-1 (Fluoribacter gormanii, UniProt Q9K578). In words: biochemical. On the set-up: species or system Fluoribacter (Legionella) gormanii. The following applies: Approximate Ki (= Km) value, from a single avibactam concentration (1 mM), ceftazidime 30 µM substrate.
Series [7] deals with T3, NDM-1. The class given is binding. Conditions: avibactam 4 mM, Tris-D11 50 mM pH 7.5.
The target of series [8] is T1, VIM-2. The class given is binding. Conditions: VIM-2 80 μM, avibactam 4 mM, Tris-D11 50 mM pH 7.5.
The target in series [9] is T2, VIM-4. The class given is binding. The following applies: VIM-4 80 μM, avibactam 4 mM, Tris-D11 50 mM pH 7.5.
In series [10] the target is BcII (Bacillus cereus, UniProt P04190). The class given is binding. The following applies: BcII 80 μM, avibactam 4 mM, Tris-D11 50 mM pH 7.5. On the procedure:
(§1) Typical experimental parameters for Carr-Purcell-Meiboom-Gill (CPMG) NMR spectroscopy were the following: total echo time, 40 ms; relaxation delay, 2 s; and number of transients, 264 ([31]). The PROJECT-CPMG sequence (90°x-[τ-180°y-τ-90°y-τ-180°y-τ]n-acq) was applied. Water suppression was achieved by presaturation. Prior to Fourier transformation, the data were multiplied with an exponential function with 3-Hz line broadening.
(§2) For ^1H excitation sculpting suppression with perfect echo NMR experiments, spectra were typically obtained using 256 scans and a relaxation delay of 1 s ([32]). A 2-ms sinc pulse was used for water suppression. Prior to Fourier transformation, data were multiplied with an exponential function with 2-Hz line broadening.
(§3) For water-ligand observed gradient spectroscopy (wLOGSY) analyses, typical experimental parameters were the following: mixing time, 1 s; relaxation delay, 2 s; number of transients, 256 ([33]). Solvent excitation was achieved using a 16-ms 180° selective rectangular shape pulse with 1,000 points (Squa100.1000) set at the H2O frequency. Water suppression was achieved by a 2-ms sinc pulse (Sinc1.1000) at the H2O frequency.

Series [11] relates to SPM-1. The class given is binding. On the procedure:
as §1, §2, §3

Series [12] concerns the target T5, FEZ-1. Type of series: binding, Fluoribacter (Legionella) gormanii. The following applies: FEZ-1 80 μM, avibactam 4 mM, Tris-D11 50 mM pH 7.5.
The target in series [13] is CphA (Aeromonas hydrophila, UniProt P26918). Type of series: binding. The following applies: CphA 80 μM, avibactam 4 mM, Tris-D11 50 mM pH 7.5.
Chain of CphA (P26918 28-254): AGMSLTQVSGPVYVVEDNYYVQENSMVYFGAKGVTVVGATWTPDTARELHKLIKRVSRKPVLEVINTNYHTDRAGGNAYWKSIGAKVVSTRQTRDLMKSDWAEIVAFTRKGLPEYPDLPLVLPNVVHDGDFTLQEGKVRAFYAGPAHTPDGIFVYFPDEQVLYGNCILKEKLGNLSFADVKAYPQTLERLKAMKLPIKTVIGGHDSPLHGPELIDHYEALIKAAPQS
The target in series [14] is T2, VIM-4. Conditions: 1 mM avibactam (600 μl), 12 μg VIM-4, 5 mM HEPES pH 7.5, 20 μM ZnCl2, 4 h at 37°C.
The target of series [15] is T3, NDM-1. Conditions: NDM-1 0.022 mM; still extremely slow by normal β-lactamase standards.
The target in series [16] is T2, VIM-4. Conditions: still extremely slow by normal β-lactamase standards.
The target in series [17] is T2, VIM-4. Conditions: VIM-4, 240 min, Raman spectroscopy.
Series [18] has as its target T2, VIM-4. The following applies: LC-MS.
The nature of series [19]: Stability of avibactam in buffer without enzyme (NMR control). Conditions: buffer (Tris-D11 50 mM, pH 7.5).
The test system of series [20] is all of the MBLs (VIM-2, VIM-4, SPM-1, NDM-1, IMP-1, FEZ-1). In words: Complete time courses of ceftazidime hydrolysis. The following applies: all MBLs incl. VIM-4; concluded from quasi first-order complete time courses, 5 mM HEPES pH 7.5. The class given is biochemical.
Series [21] relates to SPM-1. Set-up: method as in PMID 12543663. The following applies: reported conditions different, read-out: ceftazidime Km; cited from earlier work.
Series [22] concerns the target T5, FEZ-1. Set-up: method as in PMID 11257043. Conditions: reported conditions different, read-out: ceftazidime Km; cited from earlier work.
The target in series [23] is T1, VIM-2. Conditions: cited from earlier work.
Series [24] addresses T3, NDM-1. Conditions: cited from earlier work.
For series [25], the target named is T4, IMP-1. The following applies: cited from earlier work.
The test system of series [26] is NC(=O)[C@@H]1CC[C@@H]2CN1C(=O)N2OS(=O)(=O)O. In words: purified protein, by the assay type.

T5 sequence (Q9K578 21-282 limits assumed): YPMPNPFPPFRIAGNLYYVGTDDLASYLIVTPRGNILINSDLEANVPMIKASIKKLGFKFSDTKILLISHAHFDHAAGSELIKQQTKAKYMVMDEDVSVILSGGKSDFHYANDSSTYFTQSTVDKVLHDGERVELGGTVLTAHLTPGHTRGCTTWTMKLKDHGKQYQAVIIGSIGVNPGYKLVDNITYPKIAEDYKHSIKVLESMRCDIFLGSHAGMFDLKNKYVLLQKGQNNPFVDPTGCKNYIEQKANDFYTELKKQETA
T4 sequence (P52699 19-246 limits assumed): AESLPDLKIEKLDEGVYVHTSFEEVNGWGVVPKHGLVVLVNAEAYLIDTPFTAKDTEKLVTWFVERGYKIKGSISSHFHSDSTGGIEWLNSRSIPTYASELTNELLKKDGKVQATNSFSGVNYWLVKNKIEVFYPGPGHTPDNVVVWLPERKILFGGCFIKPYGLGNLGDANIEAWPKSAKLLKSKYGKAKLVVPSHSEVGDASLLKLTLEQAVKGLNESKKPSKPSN
Chain of BcII (P04190 31-257): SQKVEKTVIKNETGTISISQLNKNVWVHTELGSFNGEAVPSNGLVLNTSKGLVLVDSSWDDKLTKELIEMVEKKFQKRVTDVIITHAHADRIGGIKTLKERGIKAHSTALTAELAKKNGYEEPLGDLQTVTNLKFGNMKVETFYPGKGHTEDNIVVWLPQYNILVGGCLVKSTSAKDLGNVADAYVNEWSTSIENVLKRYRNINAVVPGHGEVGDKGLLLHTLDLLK

As for `NC(=O)[C@@H]1CC[C@@H]2CN1C(=O)N2OS(=O)(=O)O` [avibactam], the Ki in [1] is over 5000 µM; in series [2] it was over 5000 µM; in [4] it was over 5000 µM; in series [5], 1700 µM and ~1700 µM; in [6], 2300 µM and ~2300 µM. In addition, the “Effect of avibactam on SPM-1-catalyzed ceftazidime hydrolysis” value in series [3] (1 mM avibactam, ceftazidime 30 µM) is “apparent activation”. Besides, the Residual activity in series [3] (ceftazidime (30 µM) in the presence of 1 mM avibactam, HEPES buffer, 30°C) is 140 + 15%. Further, the “Binding by 1H CPMG NMR” value in series [7] is “weak binding”; in series [8], “weak binding”; in series [9], “weak binding”; in series [10], “did not observe binding”; in [11] (SPM-1 80 μM, avibactam 4 mM, Tris-D11 50 mM pH 7.5) it was “weak binding”; in series [12] it was “weak binding”. Further, the “Binding by 1H CPMG NMR” value in series [13] is “did not observe binding”. Besides, the “Avibactam hydrolyzed (from absorbance at 230 nm)” value in series [14] was about 70%. For the same molecule, the “Avibactam hydrolysis observed by NMR” value in series [15] and in [16] was “more efficient hydrolysis” in each case. Further, the “Amount of sulfate produced from avibactam (of the total avibactam product)” value in series [17] is under 15%. For the same molecule, the “Reduction of the avibactam MS signal after VIM-4-catalyzed hydrolysis” value in series [18] is recorded as about 50 fold. Further, the “Hydrolysis of avibactam without enzyme” value in series [19] is on record as “did not lead to detectable product levels”.

Take `CC(C)(O/N=C(\C(=O)N[C@@H]1C(=O)N2C(C(=O)[O-])=C(C[n+]3ccccc3)CS[C@H]12)c1csc(N)n1)C(=O)O` [ceftazidime]: the Km is over 30 µM in series [20]; 46 µM in series [21]; over 1000 µM in series [22]; 72 µM in series [23]; 180 µM in series [24]; 46 µM in series [25].

Consider `NC(=O)[C@@H]1CC[C@@H](NOS(=O)(=O)O)CN1` [hydrolyzed product(s)], for which, in series [11] (SPM-1, hydrolyzed product NOE sign opposite to that of SPM-1 (free ligand)), the “Binding of products of avibactam by wLOGSY NMR” value is recorded as “no evidence for binding”.

For the molecule FEZ-1 (Fluoribacter gormanii), the kcat/Km in [26] came out at 70 ± 15 M⁻¹ s⁻¹; in series [26] (pH 7.5, 30.0 °C), 70 ± 15 M⁻¹ s⁻¹.
